Source: patent US20170049908A1 (priority 2015, published 2017)
Like-named read-outs stand apart in the source and are kept apart here.

Columns and labels:
[1] = system: HL60, U937, MV411, Hut78, H929, and RAMOS; experiment: Cytotoxic activity on six human blood cancer cell types with and without ATRA (overall statements); assay type: cell-based; conditions: all cell lines tested except RAMOS
Experimental: Agent loading (e.g., “n” of Formula (I)) was determined to be about 4.
In this study and as determined by antibody cell staining, and with the exception of HL-60 cells, all cells expressed various levels of cell surface CD38 prior to ATRA addition.

[2] = system: Ramos cells; experiment: cells; conditions: Homo sapiens, 72 h, read-out: EC50 in picoM, Ramos
[3] = system: Ramos cells; conditions: for EC50: read-out: EC50 in picoM, Ramos, Table 3, agents and agent-linker intermediates, 3 days incubation
[4] = system: SU-DHL-8 cells; conditions: for EC50: read-out: EC50 in picoM, SUDHL8, Table 3, agents and agent-linker intermediates, 3 days incubation
[5] = system: SU-DHL-8 cells; experiment: cells; conditions: Homo sapiens, SU-DHL-8, 72 h, read-out: EC50 in picoM, SUDHL8

## CC1=C(/C=C/C(C)=C/C=C/C(C)=C/C(=O)O)C(C)(C)CCC1 [ATRA, all-trans-retinoic acid]
[1]
  effect of ATRA alone on cell growth: slowed cell growth

## C[C@]12CC[C@H](O)C[C@H]1CC[C@@H]1[C@@H]2CC[C@]2(C)[C@@H](c3ccc(=O)oc3)CC[C@]12O [Bufalin, reference compound]
[2]
  EC50: 7.3 nM
[3]
  cytotoxic effect in Ramos cells, in words: modestly active
[4]
  cytotoxic effect in SU-DHL-8 cells, in words: modestly active
[5]
  EC50: 16 nM

## C[C@]12CC[C@H](OC3OC[C@H](N)[C@@H](O)[C@@H]3O)C=C1CC[C@@H]1[C@@H]2CC[C@]2(C)[C@@H](c3ccc(=O)oc3)CC[C@]12O (stereo partly drawn) [CEN09-106, Scillarenin-4-amino-4-deoxy-L-xylopyranoside]
[3]
  EC50: 1.9 nM
[4]
  EC50: 2.07 nM

## C[C@]1(OC(=O)NCCCN2CCN(CCCN)CC2)CC[C@@]2(C)[C@H](CC[C@@H]3[C@@H]2CC[C@]2(C)[C@](C)(c4ccc(=O)oc4)CC[C@]32O)C1 [CEN-371, 4-(3-{(1S,2S,5S,7R,10R,11S,14S,15R)-11-Hydroxy-2,5,14,15-tetramethyl-14-(6-oxo-3-pyranyl)tetracyclo[8 0.7.0.02, 7.011, 15]heptadec-5-yloxycarbonylamino}propyl)-1-(3-aminopropyl)piperazine]
[3]; FIG. 4 legend, unconjugated antibody, linker-agent and agents
  cytotoxic effect in Ramos cells, in words: modestly active
[3]
  EC50: 7.81 nM
[4]; FIG. 2 and FIG. 3 legends, unconjugated antibody, linker-agent and agents
  cytotoxic effect in SU-DHL-8 cells, in words: modestly active
[4]
  EC50: 11 nM

## CN(CCCN)CCCNC(=O)O[C@H]1CC[C@@]2(C)[C@H](CC[C@@H]3[C@@H]2CC[C@]2(C)[C@H](c4ccc(=O)oc4)CC[C@]32O)C1 [CEN-372, 5-[(1S,2S,5S,7R,10R,11S,14S,15R)-5-{3-[N-Methyl(3-aminopropyl)amino]propylaminocarbonyloxy}-11-hydroxy-2,15-dimethyltetracyclo[8.7.0.02, 7.011, 15]heptadec-14-yl]-2-pyranone]
[2]
  EC50: 3.6 nM
[5]
  EC50: 4.4 nM

## C[C@]12CC[C@H](OC(=O)NCCCNCCCN)C[C@H]1CC[C@@H]1[C@@H]2CC[C@]2(C)[C@H](c3ccc(=O)oc3)CC[C@]12O [CEN-373, 5-{(1S,2S,5S,7R,10R,11S,14S,15R)-5-[3-(3-Aminopropylamino)propylaminocarbonyloxy]-11-hydroxy-2,15-dimethyltetracyclo[8.7.0.02, 7.011, 15]heptadec-14-yl}-2-pyranone]
[2]
  EC50: 4 nM
[5]
  EC50: 5.9 nM

## C[C@]1(OC(=O)NCCCN2CCN(CCCN)CC2)CC[C@@]2(C)[C@H](CC[C@@H]3[C@@H]2CC[C@]2(C)[C@@](C)(C4=CC(=O)OC4)CC[C@]32O)C1 [CEN-381, 4-(3-{(1S,2S,5S,7R,10R,11S,14R,15R)-11-Hydroxy-2,5,14,15-tetramethyl-14-(5-oxo-2H-fur-3-yl)tetracyclo[8.7.0.02, 7.011, 15]heptadec-5-yloxycarbonylamino}propyl)-1-(3-aminopropyl)piperazine]
[2]
  EC50: > 50 nM
[5]
  EC50: > 50 nM

## C[C@]12CC[C@H](O)C[C@H]1CC[C@@H]1[C@@H]2CC[C@]2(C)[C@@H](C3=CC(=O)OC3)CC[C@]12O [Digitoxigenin, reference compound]
[2]
  EC50: > 50 nM
[5]
  EC50: > 50 nM
